Measurements published in PubChem BioAssay (NCI).
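Five concentrations, 48 hours, 96-well plates. At the TGI there is no net growth.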

Columns and labels:
Assay in all cases: growth of human tumour cells (NCI), 48 h
[1] = tested on: TK-10 renal
[2] = tested on: HS 578T breast
[3] = tested on: M14 melanoma
[4] = tested on: U251 CNS
[5] = tested on: NCI-H460 lung
[6] = tested on: BT-549 breast
[7] = tested on: HOP-62 NSCLC
[8] = tested on: COLO 205 colon
[9] = tested on: LXFL 529 NSCLC
[10] = tested on: NCI-H522 lung
[11] = tested on: SW-620 colon
[12] = tested on: CCRF-CEM leukemia
[13] = tested on: DMS 273 small cell lung
[14] = tested on: SNB-78 CNS
[15] = tested on: SR leukemia
[16] = tested on: XF 498 CNS
[17] = tested on: HL-60(TB) leukemia
[18] = tested on: HCT-116 colon
[19] = tested on: 786-0 renal
[20] = tested on: HOP-18 NSCLC
[21] = tested on: NCI-H226 lung
[22] = tested on: SK-MEL-5 melanoma
[23] = tested on: DMS 114 small cell lung
[24] = tested on: RXF 393 renal
[25] = tested on: HCC-2998 colon
[26] = tested on: HOP-92 NSCLC
[27] = tested on: SNB-19 CNS
[28] = tested on: OVCAR-8 ovarian
[29] = tested on: SNB-75 CNS
[30] = tested on: SK-OV-3 ovarian
[31] = tested on: PC-3 prostate
[32] = tested on: K-562 leukemia
[33] = tested on: MDA-MB-231 breast
[34] = tested on: CAKI-1 renal
[35] = tested on: HT29 colon
[36] = tested on: UACC-62 melanoma
[37] = tested on: A549 NSCLC
[38] = tested on: SF-539 CNS
[39] = tested on: EKVX NSCLC
[40] = tested on: SF-295 CNS
[41] = tested on: SN12C renal
[42] = tested on: OVCAR-5 ovarian
[43] = tested on: IGROV1 ovarian
[44] = tested on: DLD-1 colon
[45] = tested on: MDA-MB-435
[46] = tested on: ACHN renal
[47] = tested on: RPMI-8226 leukemia
[48] = tested on: HCT-15 colon
[49] = tested on: OVCAR-4 ovarian
[50] = tested on: KM12 colon
[51] = tested on: MCF7 breast
[52] = tested on: SF-268 CNS
[53] = tested on: SK-MEL-28 melanoma
[54] = tested on: LOX IMVI melanoma
[55] = tested on: MDA-N
[56] = tested on: T-47D breast
[57] = tested on: UACC-257 melanoma
[58] = tested on: KM20L2 colon
[59] = tested on: UO-31 renal
[60] = tested on: M19-MEL melanoma
[61] = tested on: DU-145 prostate
[62] = tested on: SK-MEL-2 melanoma
[63] = tested on: A498 renal
[64] = tested on: NCI-H23 lung
[65] = tested on: MALME-3M melanoma
[66] = tested on: MOLT-4 leukemia
[67] = tested on: OVCAR-3 ovarian
[68] = tested on: RXF-631 renal

Measured: TGI

COc1ccc(N2C(=O)/C(=C/c3ccc(N(CCC#N)CCC#N)cc3C)N=C2c2cc([N+](=O)[O-])ccc2Cl)cc1
59.5 µM: [48]
51.8 µM: [22]
> 56.2 µM: [5] | [11] | [41] | [54] | [57] | [63] | [65]
> 100 µM: [6] | [9] | [14] | [20] | [26] | [44] | [56] | [60]
26.6 µM: [17]
24.4 µM: [3]
28.9 µM: [27]
39.6 µM: [62]
> 36.3 µM: [34]
42.8 µM: [21]
45.7 µM: [28]
5.8 µM: [40]
> 46.4 µM: [24] | [31] | [36] | [39] | [49] | [51]
37.7 µM: [12]
7.22 µM: [38]
36.7 µM: [32]
> 61.6 µM: [64]
15.2 µM: [25]
9.95 µM: [35]
7.39 µM: [58]
45.8 µM: [50]
> 27 µM: [13]
12.5 µM: [10]
53.5 µM: [66]
> 72 µM: [37]
11.3 µM: [67]
49.4 µM: [33]
35.4 µM: [15]
> 23.5 µM: [23]
43.3 µM: [4]
5.96 µM: [2]
7.06 µM: [29]
29.3 µM: [18]
34.8 µM: [61]
6.1 µM: [45]
4.98 µM: [55]
25.6 µM: [8]
43.7 µM: [19]
8.12 µM: [16]
not listed: [68]
> 63.1 µM: all other assays above

COc1ccc(NC(=O)CC(=O)N/N=C/c2ccc(N(CCC#N)S(C)(=O)=O)cc2)cc1
not listed: [2] | [6] | [16] | [17] | [26] | [27] | [31] | [33] | [45] | [51] | [55] | [56] | [57] | [61]
> 100 µM: all other assays above

C/C(CC(=O)Nc1cc(C)ccc1C)=N\NC(=O)c1ccncc1
not listed: [2] | [6] | [13] | [15] | [16] | [20] | [23] | [27] | [31] | [33] | [34] | [41] | [45] | [46] | [48] | [49] | [51] | [55] | [56] | [61] | [63]
> 100 µM: all other assays above
